Data from patent publication US11230538B2, “Herbicides” (SYNGENTA PARTICIPATIONS AG, priority 2016, dated 2022).

Columns and labels:
Format in all cases: in vivo
Lolium perenne (LOLPE) = experiment: B1 Pre-emergence herbicidal activity; design: key to Pre-emergence herbicidal activity, LOLPE (damage score 0-5): 5=total damage to plant; 0=no damage to plant; details: pre-emergence application, rate 1000 g/ha, evaluated after 13 days
Description: (§1) Seeds of a variety of test species were sown in standard soil in pots: Triticum aestivium (TRZAW), Avena fatua (AVEFA), Alopecurus myosuroides (ALOMY), Echinochloa crus-galli (ECHCG), Lolium perenne (LOLPE), Zea Mays (ZEAMX), Abutilon theophrasti (ABUTH), Amaranthus retroflexus (AMARE) and Setaria fabenr (SETFA). After cultivation for one day (pre-emergence) under controlled conditions in a glasshouse (at 24/16° C., day/night; 14 hours light; 65% humidity), the plants were sprayed with an aqueous spray solution derived from the formulation of the technical active ingredient in acetone I water (50:50) solution containing 0.5% Tween 20 (polyoxyethelyene sorbitan monolaurate, CAS RN 9005-64-5). The test plants were then grown in a glasshouse under controlled conditions (at 24/16° C., day/night; 14 hours light; 65% humidity) and watered twice daily. After 13 days, the test was evaluated (5=total damage to plant; 0=no damage to plant).

[1] = tested on: Alopecurus myosuroides (ALOMY); experiment: B2 Post-emergence herbicidal activity; design: key: 5=total damage to plant; 0=no damage to plant; details: post-emergence application, rate 1000 g/ha, evaluated after 13 days
Description: (§2) Seeds of a variety of test species were sown in standard soil in pots: Triticum aestivium (TRZAW), Avena fatua (AVEFA), Alopecurus myosuroides (ALOMY), Echinochloa crus-galli (ECHCG), Lolium perenne (LOLPE), Zea Mays (ZEAMX), Abutilon theophrasti (ABUTH), Amaranthus retroflexus (AMARE) and Setaria fabenri (SETFA). After 8 days cultivation (post-emergence) under controlled conditions in a glasshouse (at 24/16° C., day/night; 14 hours light; 65% humidity), the plants were sprayed with an aqueous spray solution derived from the formulation of the technical active ingredient in acetone I water (50:50) solution containing 0.5% Tween 20 (polyoxyethelyene sorbitan monolaurate, CAS RN 9005-64-5). The test plants were then grown in a glasshouse under controlled conditions (at 24/16° C., day/night; 14 hours light; 65% humidity) and watered twice daily. After 13 days, the test was evaluated (5=total damage to plant; 0=no damage to plant).

[2] = tested on: Triticum aestivium (TRZAW); experiment: B2 Post-emergence herbicidal activity; design: key: 5=total damage to plant; 0=no damage to plant; details: post-emergence application, rate 1000 g/ha, evaluated after 13 days
Description: as §2

Setaria fabenri (SETFA) = experiment: B2 Post-emergence herbicidal activity; design: key: 5=total damage to plant; 0=no damage to plant; details: post-emergence application, rate 1000 g/ha, evaluated after 13 days
Description: as §2

[3] = tested on: Echinochloa crus-galli (ECHCG); experiment: B2 Post-emergence herbicidal activity; details: post-emergence application, rate 1000 g/ha, evaluated after 13 days
Description: as §2

[4] = tested on: Echinochloa crus-galli (ECHCG); experiment: B1 Pre-emergence herbicidal activity; design: key to Pre-emergence herbicidal activity, ECHCG (damage score 0-5): 5=total damage to plant; 0=no damage to plant; details: pre-emergence application, rate 1000 g/ha, evaluated after 13 days
Description: as §1

[5] = tested on: Alopecurus myosuroides (ALOMY); experiment: B1 Pre-emergence herbicidal activity; design: key: 5=total damage to plant; 0=no damage to plant; details: pre-emergence application, rate 1000 g/ha, evaluated after 13 days
Description: as §1

Avena fatua (AVEFA) = experiment: B1 Pre-emergence herbicidal activity; design: key: 5=total damage to plant; 0=no damage to plant; details: pre-emergence application, rate 1000 g/ha, evaluated after 13 days
Description: as §1

[6] = tested on: Triticum aestivium (TRZAW); experiment: B1 Pre-emergence herbicidal activity; design: key: 5=total damage to plant; 0=no damage to plant; details: pre-emergence application, rate 1000 g/ha, evaluated after 13 days
Description: as §1

Setaria fabenr (SETFA) = experiment: B1 Pre-emergence herbicidal activity; design: key to Pre-emergence herbicidal activity, SETFA (damage score 0-5): 5=total damage to plant; 0=no damage to plant; details: pre-emergence application, rate 1000 g/ha, evaluated after 13 days
Description: as §1

Structure (SMILES) | Pre-emergence herbicidal activity, LOLPE (damage score 0-5) (Lolium perenne (LOLPE)) | Post-emergence herbicidal activity, ALOMY (damage score 0-5) [1] | Post-emergence herbicidal activity, TRAZW (damage score 0-5) [2] | Post-emergence herbicidal activity, SETFA (damage score 0-5) (Setaria fabenri (SETFA)) | Post-emergence herbicidal activity, ECHCG (damage score 0-5) [3] | Pre-emergence herbicidal activity, ECHCG (damage score 0-5) [4] | Pre-emergence herbicidal activity, ALOMY (damage score 0-5) [5] | Pre-emergence herbicidal activity, AVEFA (damage score 0-5) (Avena fatua (AVEFA)) | Pre-emergence herbicidal activity, TRAZW (damage score 0-5) [6] | Pre-emergence herbicidal activity, SETFA (damage score 0-5) (Setaria fabenr (SETFA))
CC(C)(C)COCN(C(=O)c1ccccc1)c1ccc(-c2cncc(F)c2)nc1C(F)(F)F [Compound C76] | 0 | 0 | 1 | 4 | 3 | 1 | 0 | 0 | 0 | 5
O=C(c1ccccc1)N(Cc1ccc(Cl)cc1)c1ccc(-c2cncc(F)c2)nc1C(F)(F)F [Compound C77] | 0 | 0 | 0 | 2 | 1 | 0 | 0 | 0 | 0 | 1
O=C(c1ccccc1)N(Cc1cnc(Cl)s1)c1ccc(-c2cncc(F)c2)nc1C(F)(F)F [Compound C78] | 0 | 0 | 0 | 3 | 1 | 1 | 0 | 0 | 0 | 2
COCC(=O)N(CC(C)C)c1ccc(-c2cncc(F)c2)nc1C(F)(F)F [Compound C79] | 2 | 0 | 0 | 3 | 3 | 3 | 0 | 1 | 0 | 5
COCC(=O)N(COCC(C)(C)C)c1ccc(-c2cncc(F)c2)nc1C(F)(F)F [Compound C81] | 2 | 0 | 0 | 5 | 4 | 3 | 0 | 1 | 0 | 5
COCC(=O)N(Cc1ccc(Cl)cc1)c1ccc(-c2cncc(F)c2)nc1C(F)(F)F [Compound C82] | 0 | 0 | 0 | 2 | 1 | 1 | 0 | 0 | 0 | 1
COCC(=O)N(Cc1cnc(Cl)s1)c1ccc(-c2cncc(F)c2)nc1C(F)(F)F [Compound C83] | 1 | 0 | 0 | 3 | 2 | 2 | 0 | 1 | 0 | 4
COCC(=O)N(CC(=O)N(C)C)c1ccc(-c2cncc(F)c2)nc1C(F)(F)F [Compound C84] | 1 | 1 | 0 | 4 | 3 | 2 | 0 | 1 | 0 | 5
CC(C)CN(C(=O)C(C)C)c1ccc(-c2cncc(F)c2)nc1C(F)(F)F [Compound C86] | 0 | 0 | 0 | 1 | 1 | 0 | 0 | 0 | 0 | 1
CC(C)C(=O)N(CC1CC1)c1ccc(-c2cncc(F)c2)nc1C(F)(F)F [Compound C87] | 0 | 0 | 0 | 4 | 3 | 2 | 0 | 0 | 0 | 5
